Reference: ChEMBL document CHEMBL1129808, “A novel photoaffinity label for the dopamine transporter based on N-substituted 3-[bis(4-fluorophenyl)methoxy]tropane” (Bioorg Med Chem Lett, 1997)

Biological target: Sodium-dependent dopamine transporter (Rattus norvegicus, UniProt P23977)
Assay: The compound was tested for binding affinity towards dopamine transporter in rat caudate putamen
Format: tissue-based

Sodium-dependent dopamine transporter, sequence (P23977 whole entry): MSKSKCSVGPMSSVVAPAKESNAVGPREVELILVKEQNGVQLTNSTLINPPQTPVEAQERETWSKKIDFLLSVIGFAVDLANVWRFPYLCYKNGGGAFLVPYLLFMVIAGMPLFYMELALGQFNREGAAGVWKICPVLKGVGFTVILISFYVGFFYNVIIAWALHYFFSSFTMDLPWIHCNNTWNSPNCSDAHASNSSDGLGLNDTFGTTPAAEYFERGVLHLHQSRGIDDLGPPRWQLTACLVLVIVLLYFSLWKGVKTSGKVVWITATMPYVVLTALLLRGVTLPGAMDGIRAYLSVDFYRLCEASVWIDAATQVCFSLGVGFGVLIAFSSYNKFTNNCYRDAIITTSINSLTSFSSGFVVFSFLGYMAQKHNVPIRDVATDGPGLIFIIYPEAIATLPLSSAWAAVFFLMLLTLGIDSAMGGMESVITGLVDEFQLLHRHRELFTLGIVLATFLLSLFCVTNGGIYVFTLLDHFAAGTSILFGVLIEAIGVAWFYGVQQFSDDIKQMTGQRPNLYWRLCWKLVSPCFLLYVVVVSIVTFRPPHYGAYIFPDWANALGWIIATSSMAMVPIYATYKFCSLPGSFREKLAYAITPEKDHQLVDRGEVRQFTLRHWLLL

Row | Structure (SMILES) | Ki
1 | Nc1ccc(CCCCN2[C@@H]3CC[C@H]2C[C@@H](OC(c2ccc(F)cc2)c2ccc(F)cc2)C3)cc1 | 29.7 nM
2 | [N-]=[N+]=Nc1ccc(CCCCN2[C@@H]3CC[C@H]2C[C@@H](OC(c2ccc(F)cc2)c2ccc(F)cc2)C3)cc1I | 159 nM
